# Laboratory results from article PMC6624297 (Cell Death & Disease, 2019).
# Experiments:
# GES-1 cell line = experiment: Selectivity index against GES-1; format: cell-based; details: SI = CC50/IC50
# HCoEpiC cell line = experiment: Selectivity index against HCoEpiC; format: cell-based; details: SI = CC50/IC50
# A549 cells [1] = experiment: Annexin V/PI staining flow cytometry, A549; format: cell-based, human; details: 24 h
# Procedure: The density of the A549 cells and H460 in the logarithmic growth phase was adjusted to 1 × 10^6 cells/mL, and a total of 1 mL of cell suspension and 1 mL of L14e at different concentrations were added into each well with the final compound L14e concentration in each group as 0, 0.5, 1.0, and 1.5 μM. Details are given in Supplementary Materials and Methods.
# The density of the A549 cells and H460 in the logarithmic growth phase was adjusted to 1 × 10^6 cells/mL, and then the cell suspension was seeded into a 6-well plate (Becton Dickinson and Company, USA). A total of 1 mL of cell suspension and 1 mL of compound L14e at different concentrations were added into each well with the final compound L14e concentration in each group as 0 μM, 0.5 μM, 1.0 μM, and 1.5μM. After cells were incubated for 24 h at 37 °C, 1 mL of cell suspension per well was collected and centrifuged at 1000 r/min for 10 min at 4°C, and the supernatant was removed. Then, 1 mL of cold PBS was added to the cell pellet, and was shaken lightly to re-suspend the cells. The cells were centrifuged at 1000 r/min at 4 °C for 10 min, and the supernatant was removed. These steps were repeated twice. The cells were re-suspended in 150µL of PBS, 10 µL of fluorescein isothiocyanate (FITC)-labeled Annexin V (Annexin V-FITC) (Promega Corporation, USA) and 5 µL of PI (Promega Corporation, USA) were added. The mixture was gently mixed and incubated in the dark at room temperature for 10 min then stained cells were analyzed using flow cytometry to test the levels of apoptotic cells (Becton Dickinson and Company, USA; FACS Calibur).
# A549 cells [2] = experiment: Transwell migration and wound healing, A549; format: cell-based, human; details: A549, 0.5, 1.0, 1.5 μM, 24 h
# Procedure: (§1) Cell migration ability was measured using transwell chambers (8-μm pore size; Corning Costar, Cambridge, MA, USA). For the transwell assay, A549 and H460 cells suspended in serum-free RPMI-1640 medium containing different concentrations of L14e (0, 0.5, 1.0, and 1.5 μM) were seeded into the upper chamber. The lower chamber contained RPMI-1640 medium supplemented with 20% serum. After 24 h incubation, the filters were fixed in methanol and stained with 0.1% crystal violet. The upper faces of the filters were gently abraded, and the lower faces with cells migrated across the filters were imaged and counted under the microscope. For wound healing assays, cells were placed into 6-well plates and cultured until 100% confluence. An artificial scratch was created using a 200 μL pipette tip. Add serum-free RPMI-1640 medium containing different concentrations of drugs. At 24 h after culturing in serum-free medium, wound closure images were captured in the same field under magnification. Cell healing rates were calculated by the fraction of cell coverage across the line. These experiments were performed in triplicate and repeated three times.
# H460 cells = experiment: Transwell migration and wound healing, H460; format: cell-based, human; details: H460, 0.5, 1.0, 1.5 μM, 24 h
# Procedure: as §1
# p-EGFR, p-AKT, p-ERK1/2 = experiment: Western blot EGFR signaling pathway, A549; format: cell-based, human; details: A549, 0.5, 1.0, 1.5 μM, 24 h, EGF 50 ng/ml
# Procedure: A549 cells, H460 cells and HUVECs were treated with different concentrations of compound L14e for 24 h. Primary antibodies (100 μL/cm^2): P53(10442-1-AP, Proteintech Group),caspase-3 (19677-1-AP, Proteintech Group), bax (50599-2-lg, Proteintech Group), bcl-2 (12789-1-AP, Proteintech Group), cleaved caspase-3 (25546-1-AP, Proteintech Group), β-actin (60008-1-lg, Proteintech Group), EGFR (ab21074, Abcam), AKT (#2920, Cell Signaling Technology), ERK1/2 (#4370, Cell Signaling Technology), VEGFR-2 (#9698, Cell Signaling Technology), p-EGFR (ab40815, Abcam), p-AKT (#4060, Cell Signaling Technology), p-ERK1/2 (#4695, Cell Signaling Technology), p-VEGFR-2 (#3770, Cell Signaling Technology), and GAPDH (ab181603, Abcam). The cellular levels of proteins were determined by standard Western blotting. Details were given in Supplementary Materials and Methods.
# A549 cells, H460 cells and HUVECs were treated with different concentrations of compound L14e for 24 h, and collected to establish their respective treatment groups. […]
# Extracted proteins were separated from each other using polyacrylamide electrophoresis on a 10 % gel (Beyotime Biotechnology Company, Shanghai, China) and transferred to a polyvinylidene fluoride (PVDF) membrane. […] Gray values of protein bands were quantitatively analyzed, with the gray value of β-actin(GAPDH) band as the reference.
# HUVECs = experiment: Tube formation in vitro; format: cell-based, human
# Procedure: Matrigel was thawed at 4 °C and 50 μL of the solution were added to each well in a 96-well plate and formed a gel at 37 °C for 30 min. HUVECs were suspended at 1 × 10^4 cells in 100 μL of A549 cell supernatant with or without L14e (0, 0.5, 1.0, and 1.5 μM), and then added to each well. After 24h-incubation, the degree of tube formation was determined by counting the number of areas surrounded by tubes contained in 10 random fields, and expressed as mean ± SD. Using Image J for data analysis.
smiles,measurement,setting,value
"O=C(Nc1cccc(Cl)c1)Nc1ccccc1NS(=O)(=O)c1c[nH]c(=O)[nH]c1=O [Compound L14e, N'-(3-chlorophenyl)-2-(2,4-dihydroxypyrimidine-5-sulfonamido)phenyl urea]",SI (Selectivity index) GES-1,GES-1 cell line,8.58
same,SI (Selectivity index) HCoEpiC,HCoEpiC cell line,9.40
same,apoptotic rate,"A549 cells [1]; A549, 0.5 μM",19.3%
same,"late apoptosis rate (Q2, Annexin V [+] PI [+])","A549 cells [1]; A549, 0.5 μM",17.7%
same,"late apoptosis rate (Q2, Annexin V [+] PI [+])","A549 cells [1]; A549, 1.0 μM",27.5%
same,apoptotic rate,"A549 cells [1]; A549, 1.5 μM",43.5%
same,"late apoptosis rate (Q2, Annexin V [+] PI [+])","A549 cells [1]; A549, 1.5 μM",37.1%
same,effect on cell migration,A549 cells [2],significantly inhibited the migration
same,effect on cell migration,H460 cells,significantly inhibited the migration
same,expression of phosphorylated EGFR (Tyr1068) and AKT (Ser473),"p-EGFR, p-AKT, p-ERK1/2",significantly reduced
same,expression of phosphorylated VEGFR-2 (Tyr1175) in HUVECs,HUVECs; dose-dependent,inhibiting the expression of phosphorylated VEGFR-2
same,tube formation of HUVECs,"HUVECs; supernatant of A549 cells treated with 0.5, 1.0, 1.5 μM, 24 h",inhibited tube formation
